Results as given in US20090131702A1, “METHOD FOR THE PRODUCTION OF METAL CARBOXYLATES AND THE METAL AMINOATE OR METAL HYDROXY ANALOGUE METHIONATE DERIVATIVES THEREOF, AND USE OF SAME AS GROWTH PROMOTERS IN ANIMAL FEED” (NOREL, S.A., priority 2003, published 2009).
Like-named read-outs stand apart in the source and are kept apart here. Marks after values point to notes of the source that are not given here.

Key:
[1] = Test of efficacy in piglets: production parameters, copper glycinate / formate / complex (Example 15); assay type: in vivo; settings: 21-42 days, 125 ppm of copper added to base diet
Description: (§2) Control of production parameters was effected at the end of the experiment, recording the live weight, the daily growth and the consumption of feed.

[2] = broilers
Description: During the next 4 days, an investigation of the bioavailability of the copper was carried out. After fasting for 20 hours, the live weight per cage was recorded and the experimental feeds were supplied for 2 days, recording the consumption of feed.

[3] = Test in broilers: production parameters, copper methioninate / formate / complex (Example 13); assay type: in vivo, broilers of the Ross strain; settings: for MDC (mean daily consumption) / MDG (mean daily gain) / IC (index of conversion): 25 ppm of copper added to base diet; for LW 21 d (live weight): day 21, 25 ppm of copper added to base diet; for LW 42 d (live weight): day 42, 25 ppm of copper added to base diet
Description: Four experimental treatments were used, comprising the same basic diet supplemented with different sources of copper:
The dose of copper was calculated taking into account the copper content of the ingredients and the copper requirements in the case of treatments T-0 to T-3.
(§1) Control of production parameters was effected at 21 and 42 days of age, recording the live weight and the consumption of feed per batch.

[4] = broilers; for LW 21 d (live weight): day 21; for LW 42 d (live weight): day 42
[5] = broilers; remark: listed apart in the source
[6] = broilers; remark: listed apart in the source
[7] = Test in broilers: production parameters, zinc methioninate / formate / complex (Example 12); assay type: in vivo, broilers of the Ross strain; settings: for MDC (mean daily consumption) / MDG (mean daily gain) / IC (index of conversion): 50 ppm of zinc added to base diet; for LW 21 d (live weight): day 21, 50 ppm of zinc added to base diet; for LW 42 d (live weight): day 42, 50 ppm of zinc added to base diet
Excerpt: Four experimental treatments were used, comprising the same basic diet supplemented with different sources of zinc:
as §1

[8] = piglets, 220 ppm of zinc added to base diet; for LW 28 d (live weight): day 28; for LW 42 d (live weight): day 42
Description: 300 piglets were used (cross of Large White and Landrace), 50% males and 50% females, weaned at 21 days of age and housed in 30 pens with 10 animals in each (5 males and 5 females).
Five experimental treatments were used, comprising the same basic diet, to which different sources of zinc are added:
The zinc dose was calculated taking into account the zinc content of the ingredients of the feed and the maximum permitted dose (250 ppm of zinc in the finished feed) in the case of treatments T-0 to T-2, and the dose with promoter effect (2000 ppm) in the case of treatment T-3.
The experimental period was 21 days.
The experimental model was a design of random blocks, with 6 replications per treatment. Each replication comprised a batch of 10 animals.
as §2

[9] = Zinc concentration in the liver of piglets (Example 11); assay type: in vivo; settings: for Liver zinc / Ratio Zn in liver/Zn in diet: end of 21-day experiment, 220 ppm of zinc added to base diet
Excerpt: At the end of the experiment, one male and one female were selected at random from each batch to take a specimen of liver tissue and determine the zinc content.

[10] = Test of efficacy in piglets: production parameters, zinc glycinate / formate / complex (Example 14); assay type: in vivo; settings: 21-50 days, 130 ppm of zinc added to base diet
Excerpt: The experimental period was 29 days.

[11] = 43 to 46 days of age, 20 ppm of copper added to base diet
[12] = 43 to 46 days of age, 150 ppm of copper added to base diet
[13] = 0-21 days, 20 ppm of copper added to base diet
[14] = 0-21 days, 150 ppm of copper added to base diet
[15] = 0-42 days, 20 ppm of copper added to base diet
[16] = 0-42 days, 150 ppm of copper added to base diet
[17] = 21-42 days, 20 ppm of copper added to base diet
[18] = 21-42 days, 150 ppm of copper added to base diet
[19] = 20 ppm of copper added to base diet
[20] = 150 ppm of copper added to base diet
[21] = 43 to 46 days of age, 25 ppm of copper added to base diet
[22] = 43 to 46 days of age, 50 ppm of zinc added to base diet

## O=S(=O)([O-])[O-].[Cu+2] [copper sulfate]
[1]
  GLW 21-42 d (gain in live weight): 6.5 a kg
  MDC (mean daily consumption): 650.5 g/day
  MDG (mean daily gain): 309.5 a g
[2]; [11]
  Copper excreted: 4.08^a mg
  Copper ingested: 7.3^a mg
[2]; [12]
  Copper excreted: 397.3^b mg
  Copper ingested: 652.4^b mg
[3]; 0-21 days
  MDC (mean daily consumption): 45.3 g/day
  MDG (mean daily gain): 31.6 a g
[3]; 0-42 days
  MDC (mean daily consumption): 102.7 g/day
  MDG (mean daily gain): 51.6 a g
[3]; 21-42 days
  MDC (mean daily consumption): 160.1 g/day
  MDG (mean daily gain): 71.6 a g
[3]
  LW 21 d (live weight): 695 a g
  LW 42 d (live weight): 2200 a g
[4]; [13]
  MDC (mean daily consumption): 48.9 g/day
  MDG (mean daily gain): 34.2 a g
[4]; [14]
  MDC (mean daily consumption): 49.7 g/day
  MDG (mean daily gain): 35.9 b g
[4]; [15]
  MDC (mean daily consumption): 98.2 g/day
  MDG (mean daily gain): 50.6 a g
[4]; [16]
  MDC (mean daily consumption): 99.5 g/day
  MDG (mean daily gain): 55.2 b g
[4]; [17]
  MDC (mean daily consumption): 149.3 g/day
  MDG (mean daily gain): 69.2 a g
[4]; [18]
  MDC (mean daily consumption): 154.2 g/day
  MDG (mean daily gain): 76.7 b g
[4]; [19]
  LW 21 d (live weight): 716 a g
  LW 42 d (live weight): 2172 a g
[4]; [20]
  LW 21 d (live weight): 756 b g
  LW 42 d (live weight): 2362 b g
[5]; [21]
  Copper excreted: 20.4^a mg
  Copper ingested: 67.98^a mg

## O=S(=O)([O-])[O-].[Zn+2] [zinc sulfate]
[6]; [22]
  Zinc excreted: 8.34^a mg
  Zinc ingested: 12.4^a mg
[7]; 0-21 days
  MDC (mean daily consumption): 47.3 g/day
  MDG (mean daily gain): 33.6 a g
[7]; 0-42 days
  MDC (mean daily consumption): 101.7 g/day
  MDG (mean daily gain): 53.5 a g
[7]; 21-42 days
  MDC (mean daily consumption): 156.3 g/day
  MDG (mean daily gain): 73.6 a g
[7]
  LW 21 d (live weight): 705 a g
  LW 42 d (live weight): 2250 a g

## zinc methioninate
[6]; [22]
  Zinc excreted: 7.35^b mg
  Zinc ingested: 12.6^a mg
[6]; 50 ppm of zinc
  zinc bioavailability (in words): highest bioavailability
[6]; zinc, 43 to 46 days of age, 50 ppm of zinc added to base diet
  Bioavailability: 42.6^b %
[7]; 0-21 days
  IC (index of conversion): 1.35 b
  MDC (mean daily consumption): 48.1 g/day
  MDG (mean daily gain): 35.7 b g
[7]; 0-42 days
  IC (index of conversion): 1.82 b
  MDC (mean daily consumption): 101.7 g/day
  MDG (mean daily gain): 55.7 b g
[7]; 21-42 days
  IC (index of conversion): 2.05 b
  MDC (mean daily consumption): 155.2 g/day
  MDG (mean daily gain): 75.7 b g
[7]; 50 ppm of zinc, control T-0 = zinc sulfate
  effect on production parameters (in words): same effect
[7]
  LW 21 d (live weight): 750 b g
  LW 42 d (live weight): 2340 b g

## Zinc butyrate
[8]; 21-28 days
  IC (index of conversion): 1.09 b
  MDC (mean daily consumption): 286.3 g/day
  MDG (mean daily gain): 262.9 ab g
[8]; 21-42 days
  IC (index of conversion): 1.45 b
  MDC (mean daily consumption): 741.3 g/day
  MDG (mean daily gain): 509.6 b g
[8]
  LW 28 d (live weight): 8.99 B kg
  LW 42 d (live weight): 14.15 b kg
[9]; 220 ppm of zinc
  ratio of zinc in the liver to zinc in the diet (in words): highest ratio
[9]
  Liver zinc: 56.3a μg/g
  Ratio Zn in liver/Zn in diet: 22.3bc

## NCC(=O)[O-].NCC(=O)[O-].[Zn+2] [zinc glycinate]
[10]
  GLW 21-50 d (gain in live weight): 12.75 b kg
  IC (index of conversion): 1.68 b
  MDC (mean daily consumption): 741.3 g/day
  MDG (mean daily gain): 439.6 b g

## Copper butyrate
[2]; [11]
  Copper excreted: 2.99^a mg
  Copper ingested: 7.3^a mg
[2]; 20 ppm of copper
  copper bioavailability (in words): highest bioavailability
[2]; copper, 43 to 46 days of age, 20 ppm of copper added to base diet
  Bioavailability: 59.09^b %
[4]; [13]
  IC (index of conversion): 1.35 b
  MDC (mean daily consumption): 48.9 g/day
  MDG (mean daily gain): 36.2 b g
[4]; [15]
  IC (index of conversion): 1.76 b
  MDC (mean daily consumption): 97.2 g/day
  MDG (mean daily gain): 55.1 b g
[4]; [17]
  IC (index of conversion): 1.94 b
  MDC (mean daily consumption): 147.2 g/day
  MDG (mean daily gain): 75.9 b g
[4]; [19]
  LW 21 d (live weight): 763 b g
  LW 42 d (live weight): 2358 b g

## [O]=[Zn] [zinc oxide]
[10]
  GLW 21-50 d (gain in live weight): 11.40 a kg
  IC (index of conversion): 2.02 a
  MDC (mean daily consumption): 795.3 g/day
  MDG (mean daily gain): 393.1 a g
[8]; 21-28 days
  IC (index of conversion): 1.32 a
  MDC (mean daily consumption): 321.7 g/day
  MDG (mean daily gain): 244.5 A g
[8]; 21-42 days
  IC (index of conversion): 1.67 a
  MDC (mean daily consumption): 795.3 g/day
  MDG (mean daily gain): 475.3 a g
[8]
  LW 28 d (live weight): 8.41 A kg
  LW 42 d (live weight): 13.11 a kg
[9]; dose of 220 ppm
  liver zinc concentration (in words): lowest
[9]
  Liver zinc: 47.63a μg/g
  Ratio Zn in liver/Zn in diet: 19.8ab

## copper methioninate
[3]; 0-21 days
  IC (index of conversion): 1.36 b
  MDC (mean daily consumption): 47.1 g/day
  MDG (mean daily gain): 34.7 b g
[3]; 0-42 days
  IC (index of conversion): 1.86 b
  MDC (mean daily consumption): 100.5 g/day
  MDG (mean daily gain): 54.0 b g
[3]; 21-42 days
  IC (index of conversion): 2.08 b
  MDC (mean daily consumption): 154.0 g/day
  MDG (mean daily gain): 73.8 b g
[3]; 25 ppm of copper, control T-0 = copper sulfate
  effect on production parameters (in words): same effect
[3]
  LW 21 d (live weight): 750 b g
  LW 42 d (live weight): 2300 b g
[5]; [21]
  Copper excreted: 29.5^b mg
  Copper ingested: 69.3^a mg
[5]; 25 ppm of copper
  copper bioavailability (in words): highest bioavailability
[5]; copper, 43 to 46 days of age, 25 ppm of copper added to base diet
  Bioavailability: 42.6^b %

## NCC(=O)[O-].NCC(=O)[O-].[Cu+2] [copper glycinate]
[1]
  GLW 21-42 d (gain in live weight): 7.25 b kg
  IC (index of conversion): 1.91 b
  MDC (mean daily consumption): 660.5 g/day
  MDG (mean daily gain): 345.0 b g
